Experimental data from US12226426B2, “Combination therapy” (IMPERIAL COLLEGE INNOVATIONS LIMITED, priority 2018, dated 2025).

Experiments:
[1] = system: WT E. coli; assay: Alkylating-agent sensitivity assay (colony forming units); details: MMS 20 mM, 30 minutes at 37° C., FIG. 1
[2] = system: alkB mutants; details: MMS 20 mM, alkB mutants compared with WT, FIG. 1

COS(C)(=O)=O [MMS, Methyl methanesulfonate]
effect on bacterial growth (CFU) [1]: minimal effect on bacterial growth
Sensitivity to MMS (CFU) [2]: significantly increased
